Assay [1] has as its target T1, Low molecular weight phosphotyrosine protein phosphatase (Homo sapiens, UniProt P24666).
T1 sequence (P24666 whole entry): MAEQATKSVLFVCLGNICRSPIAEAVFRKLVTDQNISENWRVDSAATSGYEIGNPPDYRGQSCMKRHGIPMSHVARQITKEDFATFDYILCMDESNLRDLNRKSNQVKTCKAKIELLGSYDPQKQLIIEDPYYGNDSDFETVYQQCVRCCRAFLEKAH
Nature of the assay: Inhibition of human recombinant LMW-PTP2 expressed in Escherichia coli TB1 using p-nitrophenyl phosphate as substrate after 1 hr.

The test system of assay [2] is Rattus norvegicus. The assay is described as follows: Antidiabetic activity in STZ-nicotinamide diabetic Wistar rat T2DM model assessed as decrease in blood glucose level at 50 mg/kg, po after 7 hrs by enzymatic glucose oxidase method relative to control. Type of assay: functional. Details: scale not given: the % may be the effect or the level left.
The target in assay [3] is Receptor-type tyrosine-protein phosphatase F (Homo sapiens, UniProt P10586). The assay is described as follows: Inhibition of human recombinant LAR expressed in Escherichia coli TB1 using p-nitrophenyl phosphate as substrate after 1 hr.
Receptor-type tyrosine-protein phosphatase F, sequence (P10586 whole entry): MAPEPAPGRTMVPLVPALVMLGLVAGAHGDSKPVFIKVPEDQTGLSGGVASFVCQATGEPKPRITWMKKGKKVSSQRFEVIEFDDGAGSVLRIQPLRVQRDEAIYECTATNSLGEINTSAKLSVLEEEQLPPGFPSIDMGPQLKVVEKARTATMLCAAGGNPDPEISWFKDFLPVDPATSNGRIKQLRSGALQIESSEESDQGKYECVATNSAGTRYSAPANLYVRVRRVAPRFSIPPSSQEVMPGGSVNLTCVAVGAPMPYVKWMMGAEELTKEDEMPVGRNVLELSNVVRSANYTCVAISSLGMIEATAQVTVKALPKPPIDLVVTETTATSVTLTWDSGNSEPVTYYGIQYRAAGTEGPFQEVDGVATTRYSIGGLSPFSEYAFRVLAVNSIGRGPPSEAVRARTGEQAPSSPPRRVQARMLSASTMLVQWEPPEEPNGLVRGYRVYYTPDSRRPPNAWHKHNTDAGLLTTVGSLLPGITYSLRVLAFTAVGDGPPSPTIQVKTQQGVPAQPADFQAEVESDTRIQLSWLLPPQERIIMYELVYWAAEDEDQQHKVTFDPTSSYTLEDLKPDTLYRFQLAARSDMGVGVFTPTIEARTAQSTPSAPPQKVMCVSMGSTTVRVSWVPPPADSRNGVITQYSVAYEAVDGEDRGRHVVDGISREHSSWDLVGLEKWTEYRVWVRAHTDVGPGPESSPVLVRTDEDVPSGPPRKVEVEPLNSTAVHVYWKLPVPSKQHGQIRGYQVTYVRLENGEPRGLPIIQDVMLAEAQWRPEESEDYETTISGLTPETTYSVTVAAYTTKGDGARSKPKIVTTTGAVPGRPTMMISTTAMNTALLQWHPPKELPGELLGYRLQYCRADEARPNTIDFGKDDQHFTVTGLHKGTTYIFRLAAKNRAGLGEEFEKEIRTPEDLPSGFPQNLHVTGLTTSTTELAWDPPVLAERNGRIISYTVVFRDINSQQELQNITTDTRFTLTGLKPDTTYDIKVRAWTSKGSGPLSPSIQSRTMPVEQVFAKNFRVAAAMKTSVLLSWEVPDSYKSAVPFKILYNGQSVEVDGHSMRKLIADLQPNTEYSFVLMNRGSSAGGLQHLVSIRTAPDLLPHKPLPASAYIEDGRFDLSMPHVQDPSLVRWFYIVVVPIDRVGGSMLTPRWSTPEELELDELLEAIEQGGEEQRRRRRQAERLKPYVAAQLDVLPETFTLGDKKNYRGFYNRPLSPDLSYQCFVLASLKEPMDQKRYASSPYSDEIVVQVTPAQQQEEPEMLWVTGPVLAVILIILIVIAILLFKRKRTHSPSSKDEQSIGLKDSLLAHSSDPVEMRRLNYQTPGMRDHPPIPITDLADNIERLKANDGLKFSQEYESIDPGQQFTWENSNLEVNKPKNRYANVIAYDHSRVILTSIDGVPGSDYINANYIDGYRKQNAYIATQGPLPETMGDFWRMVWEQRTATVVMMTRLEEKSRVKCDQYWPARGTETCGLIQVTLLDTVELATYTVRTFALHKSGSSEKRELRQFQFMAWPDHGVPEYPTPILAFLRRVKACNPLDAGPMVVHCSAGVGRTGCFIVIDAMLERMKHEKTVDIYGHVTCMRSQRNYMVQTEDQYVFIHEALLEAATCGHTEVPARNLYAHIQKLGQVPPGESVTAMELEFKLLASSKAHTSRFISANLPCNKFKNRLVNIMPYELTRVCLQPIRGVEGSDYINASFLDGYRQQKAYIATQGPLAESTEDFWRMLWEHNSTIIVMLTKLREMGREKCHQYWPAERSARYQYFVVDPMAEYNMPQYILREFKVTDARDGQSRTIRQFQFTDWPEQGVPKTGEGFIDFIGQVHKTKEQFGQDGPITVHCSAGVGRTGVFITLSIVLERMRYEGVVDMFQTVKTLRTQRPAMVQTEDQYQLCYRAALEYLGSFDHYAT
Assay [4] concerns Rattus norvegicus. Nature of the assay: Antidiabetic activity in STZ-nicotinamide diabetic Wistar rat T2DM model assessed as decrease in blood glucose level at 50 mg/kg, po after 3 hrs by enzymatic glucose oxidase method relative to control. Type of assay: functional. Details: scale not given: the % may be the effect or the level left.
Assay [5] deals with Rattus norvegicus. The assay is described as follows: Antidiabetic activity in STZ-nicotinamide diabetic Wistar rat T2DM model assessed as decrease in blood glucose level at 50 mg/kg, po after 5 hrs by enzymatic glucose oxidase method relative to control. Details: scale not given: the % may be the effect or the level left. The assay is classed as functional.
The subject of assay [6] is Rattus norvegicus. The assay is described as follows: Antidiabetic activity in STZ-nicotinamide diabetic Wistar rat T2DM model assessed as decrease in blood glucose level at 50 mg/kg, po after 1 hr by enzymatic glucose oxidase method relative to control. Type of assay: functional. Details: scale not given: the % may be the effect or the level left.
The target in assay [7] is T1, Low molecular weight phosphotyrosine protein phosphatase. Nature of the assay: Inhibition of human recombinant LMW-PTP1 expressed in Escherichia coli TB1 using p-nitrophenyl phosphate as substrate after 1 hr.
The nature of assay [8]: Inhibition of yeast LMW-PTP1 expressed in Escherichia coli TB1 using p-nitrophenyl phosphate as substrate after 1 hr. Details: species or system Saccharomyces cerevisiae.
The target in assay [9] is T2, Tyrosine-protein phosphatase non-receptor type 1 (Homo sapiens, UniProt P18031).
T2 sequence (P18031 whole entry): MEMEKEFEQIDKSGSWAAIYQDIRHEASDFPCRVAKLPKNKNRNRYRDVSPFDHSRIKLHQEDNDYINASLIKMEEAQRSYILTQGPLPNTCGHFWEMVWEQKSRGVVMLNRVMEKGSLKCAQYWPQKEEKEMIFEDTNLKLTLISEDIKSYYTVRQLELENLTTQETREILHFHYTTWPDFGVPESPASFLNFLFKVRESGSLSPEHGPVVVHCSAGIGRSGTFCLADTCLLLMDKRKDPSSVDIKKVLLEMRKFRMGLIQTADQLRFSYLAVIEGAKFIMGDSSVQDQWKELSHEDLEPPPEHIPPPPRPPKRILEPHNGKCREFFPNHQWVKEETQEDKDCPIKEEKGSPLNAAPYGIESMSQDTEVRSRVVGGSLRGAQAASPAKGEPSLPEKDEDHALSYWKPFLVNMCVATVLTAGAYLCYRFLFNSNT
Nature of the assay: Mixed type inhibition of human recombinant PTP-1B expressed in Escherichia coli TB1 using p-nitrophenyl phosphate as substrate.

The target in assay [10] is T2, Tyrosine-protein phosphatase non-receptor type 1.
Description: Inhibition of human recombinant PTP-1B expressed in Escherichia coli TB1 using p-nitrophenyl phosphate as substrate after 1 hr
The subject of assay [11] is Rattus norvegicus. Nature of the assay: Antidiabetic activity in STZ-nicotinamide diabetic Wistar rat T2DM model assessed as decrease in blood glucose level at 5 mg/kg, po after 1 hr by enzymatic glucose oxidase method relative to control. Type of assay: functional. Details: scale not given: the % may be the effect or the level left.
In assay [12] the test system is Rattus norvegicus. The assay is described as follows: Antidiabetic activity in STZ-nicotinamide diabetic Wistar rat T2DM model assessed as decrease in blood glucose level at 5 mg/kg, po after 3 hrs by enzymatic glucose oxidase method relative to control. Type of assay: functional. Details: scale not given: the % may be the effect or the level left.
For assay [13], the system named is Rattus norvegicus. The assay is described as follows: Antidiabetic activity in STZ-nicotinamide diabetic Wistar rat T2DM model assessed as decrease in blood glucose level at 5 mg/kg, po after 7 hrs by enzymatic glucose oxidase method relative to control. The assay is classed as functional. Details: scale not given: the % may be the effect or the level left.
In assay [14] the test system is Rattus norvegicus. Nature of the assay: Antidiabetic activity in STZ-nicotinamide diabetic Wistar rat T2DM model assessed as decrease in blood glucose level at 5 mg/kg, po after 5 hrs by enzymatic glucose oxidase method relative to control. The assay is classed as functional. Details: scale not given: the % may be the effect or the level left.
For another assay, the species on record is Mus musculus. Nature of the assay: Antidiabetic activity in normal Swiss mouse assessed as reduction of blood glucose level by glucose tolerance test relative to control. The assay is classed as functional. Details: scale not given: the % may be the effect or the level left.

As for `CC1(C)C=C2[C@H]3CC[C@@H]4[C@@]5(C)CC[C@H](O)C(C)(C)[C@@H]5CC[C@@]4(C)[C@]3(C)CC[C@@]2(C(=O)O)CC1` [MOROLIC ACID], the IC50 – broadly, the concentration that gives 50% inhibition – stood at 30.6 µM in [1], 35.9 µM in assay [3] and 13.4 µM in assay [7]. Besides, the Activity in the assay on Rattus norvegicus [2] stood at 39.2%; in the assay with Rattus norvegicus [4], 15.2%; in the assay with Rattus norvegicus [5], 8.77%; in the assay with Rattus norvegicus [6], 1.54%.

With `C[C@H]1[C@H](C)CC[C@]2(C(=O)O)CC[C@]3(C)C(=CC[C@@H]4[C@@]5(C)CC[C@H](O)C(C)(C)[C@@H]5CC[C@]43C)[C@H]12` [URSOLIC ACID], the IC50 worked out at 11.1 µM in assay [1], 3.8 µM in assay [3], 20 µM in [8] and 7.2 µM in [7]. Further, the Activity in the assay on Rattus norvegicus [2] was 38%; in the assay with Rattus norvegicus [4], 24.4%; with Rattus norvegicus [5], 25.7%; with Rattus norvegicus [6] it was 13.5%.

As for `CC1(C)C=C2[C@H]3CC[C@@H]4[C@@]5(C)CCC(=O)C(C)(C)[C@@H]5CC[C@@]4(C)[C@]3(C)CC[C@@]2(C(=O)O)CC1` [MORONIC ACID], the IC50 in assay [1] was determined as 27.4 µM; in [3], 45.6 µM; in assay [8], 51.2 µM; in assay [7] it was 20.6 µM; in assay [10], 13.2 µM. Also, the Activity with Rattus norvegicus [2] turned out to be 29.2%; in the assay with Rattus norvegicus [4] it was 26.3%; in the assay on Rattus norvegicus [5] it was 15.3%; with Rattus norvegicus [6], 17.3%. Also, the Ki (usually the dissociation constant of the complex between target and ligand, obtained from inhibition or displacement) in assay [9] was 8 µM.

Consider `COc1ccc(Cl)cc1C(=O)NCCc1ccc(S(=O)(=O)NC(=O)NC2CCCCC2)cc1` [GLYBURIDE], for which the Activity turned out to be 20.4% in the assay on Rattus norvegicus [11], 36.3% with Rattus norvegicus [12], 43.6% with Rattus norvegicus [13] and 37.5% in the assay with Rattus norvegicus [14].

For `CC1(C)CC[C@]2(C(=O)O)CC[C@]3(C)C(=CC[C@@H]4[C@@]5(C)CC[C@H](O)C(C)(C)[C@@H]5CC[C@]43C)[C@@H]2C1` [OLEANOLIC_ACID], the IC50 in assay [1] is 22.9 µM; in [3], 11.8 µM; in assay [8], 44.8 µM; in [7] it was 21.2 µM. Besides, the Activity was 21.9% with Rattus norvegicus [2]; 14.1% in the assay with Rattus norvegicus [4]; 23.2% in the assay on Rattus norvegicus [5]; 26.9% in the assay with Rattus norvegicus [6]; 22% in the assay filed under Mus musculus.

Values taken from ChEMBL document CHEMBL2146451, “Antidiabetic activity of some pentacyclic acid triterpenoids, role of PTP-1B: in vitro, in silico, and in vivo approaches” (Eur J Med Chem, 2011).
